# Experiments:
# [1] = tested on: White blood cell (WBC) counts; test: White blood cell (WBC) toxicity in mice; type: in vivo; details: FIG. 10
# Description: White blood cell (WBC) counts are important for immune mediated tumor clearance. In order to assess the level of WBC toxicity of induced by A-Platin relative the WBC lose was quantified in mice following treatment with drug along and drug administered in conjunction with radiation.
# [2] = tested on: Primary human tonsil epithelial cells (HTE); test: Colony forming assay (crystal violet, A540) in primary HTE cells; type: cell-based; details: FIG. 7
# [3] = tested on: SCC47 cells (HPV+ human HNSCC); test: Colony forming assay (crystal violet, A540) in SCC47 cells; type: cell-based; details: FIG. 7
# Method: (§1) In order to further assess the effect of A-platin on cancer cell growth, colony forming assays using Head and Neck Squamous Cell Carcinoma (HNSCC) were preformed. Briefly, 10,000 cells were plated in triplicate in 6-well plates per treatment condition. The next day cells were treated with the cisplatin, A-platin, or G-platin at the variable doses. On day 6 from plating, cells were fixed in 70% ethanol and stained with 0.5% crystal violet in 10% ethanol. After sufficient washing and drying, cells were destained in 25% glacial acetic acid, and absorbance of 100 uL of each destain solution was read on a SpectraMax plate reader at 540 nm (A540). A540 is an indirect measure of the amount of crystal violet per well, and thus the number of cells per well.
# [4] = tested on: SCC1 cells (HPV-human HNSCC); test: Colony forming assay (crystal violet, A540) in SCC1 cells; type: cell-based; details: 10-500 μM, p<0.03 compared to control, FIG. 7
# Method: as §1
Compound,white blood cell loss ([1]; drug treatment alone groups),white blood cell loss ([1]; drug+radiation groups),"cell number (A540) ([2]; 10-500 μM, p<0.04 compared to control)","cell number relative to control (A540) ([3]; 50-500 μM, p<0.0007 compared to control)",cell number relative to control (A540) [4],"cell number (A540) ([2]; 1-500 μM, p<0.007 compared to control)","cell number relative to control (A540) ([3]; 10-500 μM, p<0.008 compared to control)"
N[C@@H](Cc1ccc(N=C(O)CCC(=O)[O][Pt]([NH2])([NH2])([OH])([Cl])[Cl])cc1)C(=O)O [AT-Platin],less white blood cell loss,less white blood cell loss,–,–,–,–,–
"N.N.[Cl][Pt][Cl] [Cisplatin, cis-diamminedichloroplatinum(II), reference compound]",–,–,reduced cell number,reduced cell number relative to control,reduced cell number relative to control,–,–
[NH2][Pt]([NH2])([OH])([Cl])([Cl])[O]C(=O)CCC(O)=N[C@@H]1C(O)[C@H](O)C(CO)O[C@@H]1O (some centres unmarked) [G-platin],–,–,–,–,reduced cell number relative to control,reduced cell number,reduced cell number relative to control

# Source: US10383943B2, “Compositions and related methods for the treatment of cancer” (South Dakota Board of Regents, priority 2016, dated 2019)
